Where “and” joins values, the source holds several entries; their conditions need not be identical. Equal values may be shown once. Marks after values point to notes of the source that are not given here.
Assays:
Assay type in all cases: cell-based, human
A549 cells [1] = assay: Total oxidative status (TOS), A549; conditions: A549, IC50 concentration of compound, 48 h; H2O2 250 µM positive control; mean ± SD, n = 3
Method: (§1) TOS were evaluated using a commercially available kit (Rel Assay Diagnostics®, Gaziantep, Turkey) according to the manufacturer’s instructions. […] The TOS assay quantifies oxidizing agents based on their ability to convert an iron (II) ion chelator complex to iron (III) ions. The results were calibrated against hydrogen peroxide (H2O2, 250 µM) as a positive control for 48 h and expressed as µmol H2O2 equivalents per liter. The analysis was performed in three independent biological replicates (n = 3).

MCF-7 cells [2] = assay: Intracellular GSH/GSSG ratio, MCF-7; conditions: MCF-7, IC50 concentration of compound, 48 h; H2O2 positive control; mean ± SD, n = 3
Method: (§2) Intracellular reduced (GSH) and oxidized (GSSG) glutathione levels were measured using the GSH/GSSG Ratio Detection Assay Kit (Cayman Chemical, Ann Arbor, MI, USA, Cat. No: 703002) according to the manufacturer’s protocol. […] After treatment, cells were washed with cold PBS and lysed with MES buffer provided in the kit.
(§3) To prevent oxidation of GSH to GSSG during processing, samples were deproteinized using the supplied metaphosphoric acid solution and neutralized accordingly. Total glutathione and GSSG levels were measured separately by adding the appropriate buffers and reagents to the wells of a 96-well plate, followed by the addition of DTNB recycling reagent and glutathione reductase. Absorbance was read at 405 nm using a microplate reader (BMG Labtech, Germany). The amount of GSH was calculated by subtracting 2 × GSSG from the total glutathione, and the GSH/GSSG ratio was used to assess intracellular redox status.

A549 cells [3] = assay: LDH leakage assay, A549; conditions: A549, IC50 concentration of compound, 48 h; H2O2 positive control; mean ± SD, n = 3
Method: (§4) One hundred microliters of culture medium was transferred to a new 96-well plate. One hundred microliters of LDH reaction solution was added to each well, and absorbance was measured at 490 nm using an ELISA plate reader (BMG Labtech, Ortenberg, Germany) after 30 min.

A549 cells [4] = assay: Intracellular GSH/GSSG ratio, A549; conditions: A549, IC50 concentration of compound, 48 h; H2O2 positive control; mean ± SD, n = 3
Method: as §2, §3

MCF-7 cells [5] = assay: LDH leakage assay, MCF-7; conditions: MCF-7, IC50 concentration of compound, 48 h; H2O2 positive control; mean ± SD, n = 3
Method: as §4

HeLa cells [6] = assay: LDH leakage assay, HeLa; conditions: IC50 concentration of compound, 48 h, H2O2 positive control, mean ± SD, n = 3
Method: as §4

HeLa cells [7] = assay: Total oxidative status (TOS), HeLa; conditions: IC50 concentration of compound, 48 h, H2O2 250 µM positive control, mean ± SD, n = 3
Method: as §1

MCF-7 cells [8] = assay: Total oxidative status (TOS), MCF-7; conditions: MCF-7, IC50 concentration of compound, 48 h; H2O2 250 µM positive control; mean ± SD, n = 3
Method: as §1

A549 cells [9] = assay: MTT cell viability assay, A549; conditions: for IC50: Homo sapiens, A549, MTT, 48 h, mean ± SD, n = 3; for A549 Selectivity Index (SI): SI = IC50 (HEK 293)/IC50 (A549)
Method: (§5) Cell viability assay was performed on the human lung cancer (A549) (ATCC CCL-185), human breast cancer (MCF-7) (ATCC-HTB-22), cervical cancer (HeLa) (ATCC-CCL-2), and human embryonic kidney 293 (HEK293) (ATCC-CRL-1573) cell lines, which were purchased from Deutsche Sammlung von Mikroorganismen und Zellkulturen (DSMZ, Braunschweig, Germany). The cells were maintained in Dulbecco’s modified Eagle’s medium (DMEM), supplemented with 10% fetal bovine serum (FBS), 2 mM L-glutamine, 100 U/mL penicillin, and 100 mg/L streptomycin (Biochrom AG, Berlin, Germany) at 37 °C in a humidified atmosphere of 5% CO2.
(§6) The cytotoxic effect was determined by the MTT (3-(4,5-dimethyl-2-thiazolyl)-2,5-diphenyl-2H-tetrazolium bromide) cell viability assay. Cells were seeded at an initial concentration of 1 × 10^5 cells/mL in 96-well microplates. Cells were then treated with different concentrations (0.5, 5, 10, 25, 50, 100 and 200 µM) of the novel synthesized compounds for 48 h. After the incubation period, the formed formazan crystals were dissolved in dimethyl sulfoxide (DMSO), and the optical density (OD) of the compounds was measured at 570 nm using a spectrophotometer (BMG Labtech, Ortenberg, Germany). Cytotoxicity was expressed as an increase in the mean percentage of cytotoxicity relative to the unexposed control ± standard deviation (SD). […] Control values were set at 0% cytotoxicity. IC50 was calculated by fitting the data to a sigmoidal curve using a four-parameter logistic model and was presented as an average of three independent measurements. […] Doxorubicin was used as a positive control. Each sample was tested in triplicate.
(§7) To evaluate the selectivity of the tested compound(s) toward cancer cells over normal cells, the Selectivity Index (SI) was calculated using the following formula:SI = IC50 (normal cells)/IC50 (cancer cells)
(§8) An SI value greater than 2 was considered to indicate selective cytotoxicity, while values below 2 were interpreted as non-selective. Higher SI values reflect greater therapeutic potential due to reduced toxicity toward normal cells.

MCF-7 cells [10] = assay: Cell cycle analysis (PI staining, flow cytometry), MCF-7; conditions: MCF-7, IC50 concentration, 48 h, mean ± SEM, n = 3
Method: (§9) Cell cycle distribution was assessed by propidium iodide (PI) staining and flow cytometry. HeLa, MCF-7, and A549 cells were seeded in 6-well plates at a density of 1 × 10^5 cells per well and allowed to attach overnight. […] Following exposure, both adherent and floating cells were collected, washed twice with cold phosphate-buffered saline (PBS, pH 7.4), and fixed overnight in 70% cold ethanol at 4 °C. After fixation, the cells were centrifuged and resuspended in 500 µL of PI/RNase staining solution containing 50 µg/mL PI and 100 µg/mL RNase A (Sigma-Aldrich®, St. Louis, MO, USA), followed by incubation in the dark for 30 min at 37 °C. The stained samples were analyzed using a Muse™ Cell Analyzer (Merck, Millipore, Germany) equipped with a 488 nm excitation laser and a 617 nm emission filter. A minimum of 10,000 events per sample were acquired after exclusion of debris and doublets via FSC-A vs. FSC-H gating. The DNA content histograms were generated automatically, and cell populations were expressed as percentages of G0/G1, S, and G2/M phases using the Muse™ Cell Cycle Analysis Software 1.5.0.0. All assays were conducted in triplicate biological repeats (n = 3), and results were reported as mean ± SEM.

MCF-7 cells [11] = assay: MTT cell viability assay, MCF-7; conditions: for IC50: Homo sapiens, MCF7, MTT, 48 h, mean ± SD, n = 3; for MCF-7 Selectivity Index (SI): SI = IC50 (HEK 293)/IC50 (MCF-7)
Method: as §5, §6, §7, §8

A549 cells [12] = assay: Cell cycle analysis (PI staining, flow cytometry), A549; conditions: A549, IC50 concentration, 48 h, mean ± SEM, n = 3
Method: as §9

HEK 293 cells = assay: MTT cell viability assay, non-cancerous HEK 293; conditions: Homo sapiens, HEK293, 48 h, mean ± SD, n = 3
Method: as §5
The cytotoxic effect was determined by the MTT (3-(4,5-dimethyl-2-thiazolyl)-2,5-diphenyl-2H-tetrazolium bromide) cell viability assay. Cells were seeded at an initial concentration of 1 × 10^5 cells/mL in 96-well microplates. Cells were then treated with different concentrations (0.5, 5, 10, 25, 50, 100 and 200 µM) of the novel synthesized compounds for 48 h. After the incubation period, the formed formazan crystals were dissolved in dimethyl sulfoxide (DMSO), and the optical density (OD) of the compounds was measured at 570 nm using a spectrophotometer (BMG Labtech, Ortenberg, Germany). Cytotoxicity was expressed as an increase in the mean percentage of cytotoxicity relative to the unexposed control ± standard deviation (SD). […] Control values were set at 0% cytotoxicity. IC50 was calculated by fitting the data to a sigmoidal curve using a four-parameter logistic model and was presented as an average of three independent measurements. […] Each sample was tested in triplicate.

HeLa cells [13] = assay: MTT cell viability assay, HeLa; conditions: for IC50: Homo sapiens, HeLa, MTT, 48 h, mean ± SD, n = 3; for HeLa Selectivity Index (SI): SI = IC50 (HEK 293)/IC50 (HeLa)
Method: as §5, §6, §7, §8

HeLa cells [14] = assay: Intracellular GSH/GSSG ratio, HeLa; conditions: IC50 concentration of compound, 48 h, H2O2 positive control, mean ± SD, n = 3
Method: as §2, §3

HeLa cells [15] = assay: Cell cycle analysis (PI staining, flow cytometry), HeLa; conditions: IC50 concentration, 48 h, mean ± SEM, n = 3
Method: as §9

| IC50 (A549 cells [9]) | IC50 (MCF-7 cells [11]) | IC50 (HeLa cells [13]) | Compound | TOS (A549 cells [1]) | GSH/GSSG (MCF-7 cells [2]) | LDH (A549 cells [3]) | GSH/GSSG (A549 cells [4]) | LDH (MCF-7 cells [5]) | LDH (HeLa cells [6]) | TOS (HeLa cells [7]) | TOS (MCF-7 cells [8]) | A549 Selectivity Index (SI) (A549 cells [9]) | cells in G0/G1 phase (MCF-7 cells [10]) | cells in G2/M phase (MCF-7 cells [10]) | cells in S phase (MCF-7 cells [10]) | MCF-7 Selectivity Index (SI) (MCF-7 cells [11]) | IC50 (HEK 293 cells) | HeLa Selectivity Index (SI) (HeLa cells [13]) | also measured |
| --- | --- | --- | --- | --- | --- | --- | --- | --- | --- | --- | --- | --- | --- | --- | --- | --- | --- | --- | --- |
|  |  |  | OO [Compound H2O2, hydrogen peroxide, reference compound] | 10.5 ± 0.8 ^a µmol H2O2 eq/L | 7.4 ± 0.9 ^a nmol/mg Protein | 40.7 ± 3.0 ^a µU/mL | 7.1 ± 0.9 ^a nmol/mg Protein | 39.5 ± 2.7 ^a µU/mL | 41.5 ± 3.2 ^a µU/mL | 10.4 ± 0.7 ^a µmol H2O2 eq/L | 10.1 ± 0.7 ^a µmol H2O2 eq/L |  |  |  |  |  |  |  |  |
| 10.2 ± 0.58 µM | 9.7 ± 0.56 µM | 11.5 ± 0.66 µM | O=C(Cn1c(=O)n(CC(=O)NNC(=O)c2cc3cc(Br)ccc3oc2=O)c2cc(Cl)c(Cl)cc21)NNC(=O)c1cc2cc(Br)ccc2oc1=O [Compound 12c, N′,N′′′ -(2,2′-(5,6-dichloro-2-oxo-1H-benzo[d]imidazole-1,3(2H)-diyl)bis(acetyl))bis(6-bromo-2-oxo-2H-chromene-3-carbohydrazide)] | 8.5 ± 0.7 µmol H2O2 eq/L and 8.5 ± 0.7 ^a,b µmol H2O2 eq/L | 10.2 ± 1.0 nmol/mg Protein and 10.2 ± 1.0 ^a,b nmol/mg Protein | 30.4 ± 2.6 µU/mL and 30.4 ± 2.6 ^a,b µU/mL | 9.5 ± 0.8 nmol/mg Protein and 9.5 ± 0.8 ^a,b nmol/mg Protein | 28.8 ± 2.2 µU/mL and 28.8 ± 2.2 ^a,b µU/mL |  |  | 8.3 ± 0.6 µmol H2O2 eq/L and 8.3 ± 0.6 ^a,b µmol H2O2 eq/L | 2.01 | 72.2 ± 2.3% | 12.5 ± 1.1% | 15.3 ± 1.2% | 2.21 | 21.5 ± 1.24 µM | 1.86 | cells in G0/G1 phase (A549 cells [12]): 68.4 ± 2.4%; cells in G2/M phase (A549 cells [12]): 16.4 ± 1.5%; cells in S phase (A549 cells [12]): 15.2 ± 1.3% |
| 27.4 ± 1.58 µM | 19.1 ± 1.1 µM | 10.6 ± 0.61 µM | O=c1n(Cc2nnc(S)o2)c2cc(Cl)c(Cl)cc2n1Cc1nnc(S)o1 [Compound 7, 5,6-Dichloro-1,3-bis((5-mercapto-1,3,4-oxadiazol-2-yl)methyl)-1H-benzo[d]imidazol-2(3H)-one] |  | 11.3 ± 1.0 nmol/mg Protein and 11.3 ± 1.0 ^a,b nmol/mg Protein |  |  | 25.3 ± 2.0 µU/mL and 25.3 ± 2.0 ^a,b µU/mL | 30.9 ± 2.7 µU/mL and 30.9 ± 2.7 ^a,b µU/mL | 8.6 ± 0.7 µmol H2O2 eq/L and 8.6 ± 0.7 ^a,b µmol H2O2 eq/L | 7.6 ± 0.6 µmol H2O2 eq/L and 7.6 ± 0.6 ^a,b µmol H2O2 eq/L | 1.4 | 69.0 ± 2.0% | 13.8 ± 1.2% | 17.2 ± 1.3% | 2.01 | 38.5 ± 2.2 µM | 3.63 | GSH/GSSG (HeLa cells [14]): 9.4 ± 1.0; cells in G0/G1 phase (HeLa cells [15]): 38.4 ± 2.1%; cells in G2/M phase (HeLa cells [15]): 38.4 ± 1.9%; cells in S phase (HeLa cells [15]): 23.2 ± 1.5% |

Reference: PMC12735921, “Evaluation of Antiproliferative Activity and Molecular Modeling Studies of Some Novel Benzimidazolone-Bridged Hybrid Compounds” (Pharmaceuticals, 2025)
